What was measured:
Assay in all cases: radiometric filter-binding kinase assay, Kinase HotSpot
[1] = molecular target: CAMK4 (human) (UniProt Q16566); conditions: compound 0.5 µM; ATP 10 µM
[2] = molecular target: PTK6 (human) (UniProt Q13882); conditions: compound 0.5 µM; ATP 10 µM
[3] = molecular target: TAOK1 (human) (UniProt Q7L7X3); conditions: compound 0.5 µM; ATP 10 µM
[4] = molecular target: MKNK2 (human) (UniProt Q9HBH9); conditions: compound 0.5 µM; ATP 10 µM
[5] = molecular target: CSF1R (human) (UniProt P07333); conditions: compound 0.5 µM; ATP 10 µM
[6] = molecular target: FGFR2 (human) (UniProt P21802); conditions: compound 0.5 µM; ATP 10 µM
[7] = molecular target: BMX (human) (UniProt P51813); conditions: compound 0.5 µM; ATP 10 µM
Chain of BMX (human) (P51813 whole entry, looked up): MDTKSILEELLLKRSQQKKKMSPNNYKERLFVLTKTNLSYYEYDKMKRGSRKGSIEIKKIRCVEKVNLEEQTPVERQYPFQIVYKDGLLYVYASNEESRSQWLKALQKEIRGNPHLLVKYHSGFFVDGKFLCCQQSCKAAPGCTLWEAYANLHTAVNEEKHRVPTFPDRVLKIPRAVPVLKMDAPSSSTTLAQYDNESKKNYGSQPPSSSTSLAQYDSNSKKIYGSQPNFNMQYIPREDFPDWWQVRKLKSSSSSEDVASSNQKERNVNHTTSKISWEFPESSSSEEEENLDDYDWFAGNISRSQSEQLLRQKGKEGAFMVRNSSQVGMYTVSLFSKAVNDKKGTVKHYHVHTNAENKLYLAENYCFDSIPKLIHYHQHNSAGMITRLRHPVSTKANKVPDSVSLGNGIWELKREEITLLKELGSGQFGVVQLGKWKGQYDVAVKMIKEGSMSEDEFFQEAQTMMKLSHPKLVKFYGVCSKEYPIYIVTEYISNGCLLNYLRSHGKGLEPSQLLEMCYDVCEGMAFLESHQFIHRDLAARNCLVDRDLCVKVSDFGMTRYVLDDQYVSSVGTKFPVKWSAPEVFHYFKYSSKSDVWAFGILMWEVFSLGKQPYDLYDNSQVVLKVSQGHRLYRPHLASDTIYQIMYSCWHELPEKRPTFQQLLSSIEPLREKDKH

[8] = molecular target: MAPK3 (human) (UniProt P27361); conditions: compound 0.5 µM; ATP 10 µM
[9] = molecular target: RPS6KA2 KD1 KD2 (human) (UniProt Q15349); conditions: compound 0.5 µM; ATP 10 µM
[10] = molecular target: TNK2 (human) (UniProt Q07912); conditions: compound 0.5 µM; ATP 10 µM
[11] = molecular target: CSNK1E (human) (UniProt P49674); conditions: compound 0.5 µM; ATP 10 µM
[12] = molecular target: MET (human) (UniProt P08581); conditions: compound 0.5 µM; ATP 10 µM
[13] = molecular target: SGK2 (human) (UniProt Q9HBY8); conditions: compound 0.5 µM; ATP 10 µM
[14] = molecular target: STK11 (human) (UniProt Q15831); conditions: compound 0.5 µM; ATP 10 µM
[15] = molecular target: ERBB4 (human) (UniProt Q15303); conditions: compound 0.5 µM; ATP 10 µM
[16] = molecular target: FGFR3 (human) (UniProt P22607); conditions: compound 0.5 µM; ATP 10 µM
[17] = molecular target: RPS6KB2 (human) (UniProt Q9UBS0); conditions: compound 0.5 µM; ATP 10 µM
[18] = molecular target: ROCK1 (human) (UniProt Q13464); conditions: compound 0.5 µM; ATP 10 µM
Chain of ROCK1 (human) (Q13464 whole entry, looked up): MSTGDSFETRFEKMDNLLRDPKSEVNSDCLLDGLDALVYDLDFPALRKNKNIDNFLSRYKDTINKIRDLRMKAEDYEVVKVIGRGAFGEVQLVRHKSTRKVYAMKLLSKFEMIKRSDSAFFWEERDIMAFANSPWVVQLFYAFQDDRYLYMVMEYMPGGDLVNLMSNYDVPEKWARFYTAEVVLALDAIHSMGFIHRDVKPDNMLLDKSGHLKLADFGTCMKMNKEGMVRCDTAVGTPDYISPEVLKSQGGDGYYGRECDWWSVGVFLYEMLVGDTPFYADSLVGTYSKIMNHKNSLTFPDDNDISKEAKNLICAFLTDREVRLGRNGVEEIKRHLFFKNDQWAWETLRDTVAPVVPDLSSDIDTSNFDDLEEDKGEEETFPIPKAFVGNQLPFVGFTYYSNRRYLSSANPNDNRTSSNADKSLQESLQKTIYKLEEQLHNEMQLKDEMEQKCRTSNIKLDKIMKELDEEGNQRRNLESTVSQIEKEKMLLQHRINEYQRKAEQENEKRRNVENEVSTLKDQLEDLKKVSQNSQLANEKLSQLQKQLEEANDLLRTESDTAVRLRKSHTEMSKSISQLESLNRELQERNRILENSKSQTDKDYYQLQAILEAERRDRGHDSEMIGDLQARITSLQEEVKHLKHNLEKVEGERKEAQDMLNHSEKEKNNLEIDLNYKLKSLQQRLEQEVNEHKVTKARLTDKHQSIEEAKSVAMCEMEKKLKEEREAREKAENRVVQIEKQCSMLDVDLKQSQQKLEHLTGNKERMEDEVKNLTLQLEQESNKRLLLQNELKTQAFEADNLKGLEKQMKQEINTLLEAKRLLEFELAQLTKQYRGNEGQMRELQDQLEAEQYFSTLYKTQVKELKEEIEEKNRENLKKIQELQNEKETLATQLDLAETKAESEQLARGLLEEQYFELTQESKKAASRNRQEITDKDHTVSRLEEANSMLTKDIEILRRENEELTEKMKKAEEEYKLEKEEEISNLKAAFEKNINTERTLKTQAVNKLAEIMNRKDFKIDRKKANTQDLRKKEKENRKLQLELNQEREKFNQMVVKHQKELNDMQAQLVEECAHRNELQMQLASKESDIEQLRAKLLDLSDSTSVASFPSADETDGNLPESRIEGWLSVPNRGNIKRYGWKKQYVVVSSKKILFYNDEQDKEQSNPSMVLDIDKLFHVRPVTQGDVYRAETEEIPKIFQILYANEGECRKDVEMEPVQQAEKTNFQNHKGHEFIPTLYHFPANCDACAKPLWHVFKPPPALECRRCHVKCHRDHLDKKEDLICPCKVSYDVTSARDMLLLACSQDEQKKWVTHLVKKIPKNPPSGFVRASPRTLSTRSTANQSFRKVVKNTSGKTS

[19] = molecular target: LTK (human) (UniProt P29376); conditions: compound 0.5 µM; ATP 10 µM
[20] = molecular target: MAP4K4 (human) (UniProt O95819); conditions: compound 0.5 µM; ATP 10 µM
[21] = molecular target: FGFR4 (human) (UniProt P22455); conditions: compound 0.5 µM; ATP 10 µM
[22] = molecular target: JAK3 JH1 JH2 (human) (UniProt P52333); conditions: compound 0.5 µM; ATP 10 µM
[23] = molecular target: MAPKAPK5 (human) (UniProt Q8IW41); conditions: compound 0.5 µM; ATP 10 µM
[24] = molecular target: MINK1 (human) (UniProt Q8N4C8); conditions: compound 0.5 µM; ATP 10 µM
[25] = molecular target: STK16 (human) (UniProt O75716); conditions: compound 0.5 µM; ATP 10 µM
Chain of STK16 (human) (O75716 whole entry, looked up): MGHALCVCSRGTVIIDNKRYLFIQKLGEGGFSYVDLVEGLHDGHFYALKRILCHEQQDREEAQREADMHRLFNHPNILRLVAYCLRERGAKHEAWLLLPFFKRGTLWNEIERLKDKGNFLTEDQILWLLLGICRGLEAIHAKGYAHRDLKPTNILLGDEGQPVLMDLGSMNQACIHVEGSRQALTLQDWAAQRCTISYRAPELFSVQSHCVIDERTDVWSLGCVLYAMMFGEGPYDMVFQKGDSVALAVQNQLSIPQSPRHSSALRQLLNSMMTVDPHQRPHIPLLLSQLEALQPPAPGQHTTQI

[26] = molecular target: RAF1 (human) (UniProt P04049); conditions: compound 0.5 µM; ATP 10 µM
[27] = molecular target: SRMS (human) (UniProt Q9H3Y6); conditions: compound 0.5 µM; ATP 10 µM
[28] = molecular target: CDK5 CDK5R1 p25 (human) (UniProt Q00535+Q15078); conditions: compound 0.5 µM
[29] = molecular target: NEK2 (human) (UniProt P51955); conditions: compound 0.5 µM; ATP 10 µM
Chain of NEK2 (human) (P51955 whole entry, looked up): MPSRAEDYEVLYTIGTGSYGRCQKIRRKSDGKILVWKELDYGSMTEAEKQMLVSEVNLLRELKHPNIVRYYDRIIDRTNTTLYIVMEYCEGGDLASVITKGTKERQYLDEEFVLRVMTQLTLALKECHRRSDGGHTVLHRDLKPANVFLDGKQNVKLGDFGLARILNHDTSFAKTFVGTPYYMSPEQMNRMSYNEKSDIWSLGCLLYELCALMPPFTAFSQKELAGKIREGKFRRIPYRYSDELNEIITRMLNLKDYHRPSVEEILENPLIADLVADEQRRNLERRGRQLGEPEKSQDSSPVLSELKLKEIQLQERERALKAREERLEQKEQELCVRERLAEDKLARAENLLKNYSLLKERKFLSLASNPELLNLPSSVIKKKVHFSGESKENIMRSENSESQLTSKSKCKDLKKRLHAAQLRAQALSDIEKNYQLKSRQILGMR

[30] = molecular target: AKT3 (human) (UniProt Q9Y243); conditions: compound 0.5 µM; ATP 10 µM
[31] = molecular target: PTK2 (human) (UniProt Q05397); conditions: compound 0.5 µM; ATP 10 µM
Chain of PTK2 (human) (Q05397 whole entry, looked up): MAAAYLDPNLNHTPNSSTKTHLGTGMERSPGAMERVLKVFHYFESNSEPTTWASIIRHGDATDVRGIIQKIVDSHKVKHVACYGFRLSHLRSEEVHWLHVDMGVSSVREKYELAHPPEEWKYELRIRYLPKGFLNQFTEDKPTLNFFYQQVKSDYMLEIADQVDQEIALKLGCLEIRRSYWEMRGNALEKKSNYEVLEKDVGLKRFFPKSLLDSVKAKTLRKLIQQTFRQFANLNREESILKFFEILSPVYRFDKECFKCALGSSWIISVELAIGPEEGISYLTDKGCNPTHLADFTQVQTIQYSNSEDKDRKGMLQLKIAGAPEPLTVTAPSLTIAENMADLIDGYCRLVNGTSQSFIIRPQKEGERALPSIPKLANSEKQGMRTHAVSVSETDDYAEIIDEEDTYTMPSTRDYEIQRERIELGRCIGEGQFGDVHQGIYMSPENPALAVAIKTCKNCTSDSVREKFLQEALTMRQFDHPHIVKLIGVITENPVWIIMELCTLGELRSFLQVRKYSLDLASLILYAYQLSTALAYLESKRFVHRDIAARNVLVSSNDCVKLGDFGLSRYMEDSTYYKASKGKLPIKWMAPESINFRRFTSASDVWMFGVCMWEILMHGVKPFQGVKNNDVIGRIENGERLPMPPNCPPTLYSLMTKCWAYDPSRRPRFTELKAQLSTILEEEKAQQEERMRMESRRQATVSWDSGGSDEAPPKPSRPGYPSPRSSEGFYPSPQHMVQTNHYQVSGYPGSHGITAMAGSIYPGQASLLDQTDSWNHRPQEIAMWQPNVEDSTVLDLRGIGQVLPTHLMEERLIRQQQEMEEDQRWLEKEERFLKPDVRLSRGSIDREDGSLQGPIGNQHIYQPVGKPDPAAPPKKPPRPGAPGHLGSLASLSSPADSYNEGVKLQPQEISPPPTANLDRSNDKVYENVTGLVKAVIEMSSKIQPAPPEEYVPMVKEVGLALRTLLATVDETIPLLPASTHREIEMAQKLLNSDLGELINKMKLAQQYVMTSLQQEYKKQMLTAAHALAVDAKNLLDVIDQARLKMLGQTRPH

[32] = molecular target: ACVR1 (human) (UniProt Q04771); conditions: compound 0.5 µM; ATP 10 µM
[33] = molecular target: CLK4 (human) (UniProt Q9HAZ1); conditions: compound 0.5 µM; ATP 10 µM
Chain of CLK4 (human) (Q9HAZ1 whole entry, looked up): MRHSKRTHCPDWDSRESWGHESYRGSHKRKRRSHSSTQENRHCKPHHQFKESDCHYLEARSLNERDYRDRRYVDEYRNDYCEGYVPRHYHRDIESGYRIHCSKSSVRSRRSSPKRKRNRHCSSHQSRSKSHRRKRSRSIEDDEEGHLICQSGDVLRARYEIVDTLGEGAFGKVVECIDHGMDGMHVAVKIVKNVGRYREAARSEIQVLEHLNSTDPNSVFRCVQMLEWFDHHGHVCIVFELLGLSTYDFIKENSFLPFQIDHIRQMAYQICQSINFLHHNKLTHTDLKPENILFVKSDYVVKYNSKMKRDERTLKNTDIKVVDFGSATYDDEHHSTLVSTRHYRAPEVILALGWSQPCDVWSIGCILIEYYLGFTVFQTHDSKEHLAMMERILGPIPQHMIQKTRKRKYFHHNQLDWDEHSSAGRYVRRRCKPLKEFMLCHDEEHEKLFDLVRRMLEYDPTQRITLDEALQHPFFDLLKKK

[34] = molecular target: MAP3K10 (human) (UniProt Q02779); conditions: compound 0.5 µM; ATP 10 µM
[35] = molecular target: PLK1 (human) (UniProt P53350); conditions: compound 0.5 µM; ATP 10 µM
[36] = molecular target: TYRO3 (human) (UniProt Q06418); conditions: compound 0.5 µM; ATP 10 µM
[37] = molecular target: STK10 (human) (UniProt O94804); conditions: compound 0.5 µM; ATP 10 µM
[38] = molecular target: MAPK14 (human) (UniProt Q16539); conditions: compound 0.5 µM; ATP 10 µM
[39] = molecular target: ERBB2 (human) (UniProt P04626); conditions: compound 0.5 µM; ATP 10 µM
[40] = molecular target: PRKCD (human) (UniProt Q05655); conditions: compound 0.5 µM; ATP 10 µM
Chain of PRKCD (human) (Q05655 whole entry, looked up): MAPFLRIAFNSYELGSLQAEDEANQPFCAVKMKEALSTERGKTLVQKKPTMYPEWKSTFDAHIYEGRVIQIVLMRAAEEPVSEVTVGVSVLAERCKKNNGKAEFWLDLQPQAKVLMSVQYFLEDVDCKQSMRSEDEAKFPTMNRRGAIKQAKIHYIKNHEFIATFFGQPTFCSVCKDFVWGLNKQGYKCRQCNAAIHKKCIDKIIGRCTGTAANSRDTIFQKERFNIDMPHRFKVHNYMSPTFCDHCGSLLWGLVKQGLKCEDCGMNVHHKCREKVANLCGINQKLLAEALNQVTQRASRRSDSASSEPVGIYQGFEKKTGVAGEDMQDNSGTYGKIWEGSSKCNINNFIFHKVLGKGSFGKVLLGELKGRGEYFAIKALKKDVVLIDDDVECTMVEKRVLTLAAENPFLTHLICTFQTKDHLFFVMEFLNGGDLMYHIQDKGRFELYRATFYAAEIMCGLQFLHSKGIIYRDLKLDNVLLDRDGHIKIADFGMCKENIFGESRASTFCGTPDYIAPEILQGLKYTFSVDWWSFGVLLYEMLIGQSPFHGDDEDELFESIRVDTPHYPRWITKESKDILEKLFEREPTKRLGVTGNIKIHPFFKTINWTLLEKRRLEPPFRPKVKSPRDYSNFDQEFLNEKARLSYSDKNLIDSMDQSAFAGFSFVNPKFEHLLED

[41] = molecular target: PASK (human) (UniProt Q96RG2); conditions: compound 0.5 µM; ATP 10 µM
[42] = molecular target: MAPK12 (human) (UniProt P53778); conditions: compound 0.5 µM; ATP 10 µM

## O=C(O)c1ccc2c3c1cccc3c(=O)n1c3ccccc3nc21
[1]
  residual activity: 101%
[2]
  residual activity: 91.1%
[3]
  residual activity: 93.3%
[4]
  residual activity: 57.2%
[5]
  residual activity: 104%
[6]
  residual activity: 100%
[7]
  residual activity: 96.4%
[8]
  residual activity: 102%
[9]
  residual activity: 90.5%
[10]
  residual activity: 101%
[11]
  residual activity: 96%
[12]
  residual activity: 104%
[13]
  residual activity: 103%
[14]
  residual activity: 96.6%
[15]
  residual activity: 105%
[16]
  residual activity: 92.9%
[17]
  residual activity: 98%
[18]
  residual activity: 104%
[19]
  residual activity: 72.7%
[20]
  residual activity: 43.4%
[21]
  residual activity: 88.6%
[22]
  residual activity: 46.9%
[23]
  residual activity: 96%
[24]
  residual activity: 79.8%
[25]
  residual activity: 106%
[26]
  residual activity: 97.5%
[27]
  residual activity: 106%
[28]; ATP 10 µM
  residual activity: 80.6%
[29]
  residual activity: 109%
[30]
  residual activity: 104%
[31]
  residual activity: 97.5%
[32]
  residual activity: 91.1%
[33]
  residual activity: 82.8%
[34]
  residual activity: 99.3%
[35]
  residual activity: 110%
[36]
  residual activity: 102%
[37]
  residual activity: 88.6%
[38]
  residual activity: 99%
[39]
  residual activity: 99.7%
[40]
  residual activity: 103%
[41]
  residual activity: 106%
[42]
  residual activity: 103%

## N#C/C(=C1/Nc2ccccc2S1)c1ccnc(NCCc2cccnc2)n1
[1]
  residual activity: 99%
[2]
  residual activity: 46.5%
[3]
  residual activity: 98%
[4]
  residual activity: 51%
[5]
  residual activity: 99.2%
[6]
  residual activity: 102%
[7]
  residual activity: 92.9%
[8]
  residual activity: 99.4%
[9]
  residual activity: 89.6%
[10]
  residual activity: 42.8%
[11]
  residual activity: 74.9%
[12]
  residual activity: 105%
[13]
  residual activity: 100%
[14]
  residual activity: 79.4%
[15]
  residual activity: 83.1%
[16]
  residual activity: 98.2%
[17]
  residual activity: 96.5%
[18]
  residual activity: 93.2%
[19]
  residual activity: 83.1%
[20]
  residual activity: 87.1%
[21]
  residual activity: 101%
[22]
  residual activity: 106%
[23]
  residual activity: 98.3%
[24]
  residual activity: 93.3%
[25]
  residual activity: 79.2%
[26]
  residual activity: 84%
[27]
  residual activity: 106%
[28]; ATP 10 µM
  residual activity: 90%
[29]
  residual activity: 87.8%
[30]
  residual activity: 105%
[31]
  residual activity: 93%
[32]
  residual activity: 100%
[33]
  residual activity: 43.8%
[34]
  residual activity: 79.6%
[35]
  residual activity: 91.4%
[36]
  residual activity: 98.3%
[37]
  residual activity: 86.3%
[38]
  residual activity: 89.1%
[39]
  residual activity: 104%
[40]
  residual activity: 92.2%
[41]
  residual activity: 64.1%
[42]
  residual activity: 96.7%

## O=c1[nH]c2ccccc2n1C1CCN(Cc2ccc(-c3nc4cc5[nH]cnc5cc4nc3-c3ccccc3)cc2)CC1
[1]
  residual activity: 101%
[2]
  residual activity: 91.1%
[3]
  residual activity: 102%
[4]
  residual activity: 98.7%
[5]
  residual activity: 97%
[6]
  residual activity: 94.2%
[7]
  residual activity: 108%
[8]
  residual activity: 118%
[9]
  residual activity: 101%
[10]
  residual activity: 92.3%
[11]
  residual activity: 107%
[12]
  residual activity: 102%
[13]
  residual activity: 112%
[14]
  residual activity: 95.6%
[15]
  residual activity: 105%
[16]
  residual activity: 101%
[17]
  residual activity: 102%
[18]
  residual activity: 101%
[19]
  residual activity: 95.6%
[20]
  residual activity: 99.5%
[21]
  residual activity: 97.2%
[22]
  residual activity: 100%
[23]
  residual activity: 97.4%
[24]
  residual activity: 103%
[25]
  residual activity: 99.5%
[26]
  residual activity: 94.7%
[27]
  residual activity: 93.1%
[28]
  residual activity: 96.9%
[29]
  residual activity: 96.8%
[30]
  residual activity: 103%
[31]
  residual activity: 108%
[32]
  residual activity: 102%
[33]
  residual activity: 92.8%
[34]
  residual activity: 102%
[35]
  residual activity: 109%
[36]
  residual activity: 103%
[37]
  residual activity: 92.6%
[38]
  residual activity: 99.7%
[39]
  residual activity: 88.9%
[40]
  residual activity: 98.8%
[41]
  residual activity: 110%
[42]
  residual activity: 93.1%

## O=C1NC(=O)c2c1c1c3ccccc3[nH]c1c1[nH]c3cc(Br)ccc3c21
[1]
  residual activity: 96.2%
[2]
  residual activity: 92.7%
[3]
  residual activity: 68.4%
[4]
  residual activity: 44%
[5]
  residual activity: 96%
[6]
  residual activity: 98.4%
[7]
  residual activity: 92%
[8]
  residual activity: 108%
[9]
  residual activity: 37.9%
[10]
  residual activity: 97.4%
[11]
  residual activity: 82.2%
[12]
  residual activity: 76.6%
[13]
  residual activity: 68.5%
[14]
  residual activity: 90.2%
[15]
  residual activity: 101%
[16]
  residual activity: 86.2%
[17]
  residual activity: 83.9%
[18]
  residual activity: 93.9%
[19]
  residual activity: 89.9%
[20]
  residual activity: 29.3%
[21]
  residual activity: 90.6%
[22]
  residual activity: 77%
[23]
  residual activity: 86.2%
[24]
  residual activity: 52.2%
[25]
  residual activity: 87.2%
[26]
  residual activity: 97.8%
[27]
  residual activity: 91.5%
[28]; ATP 10 µM
  residual activity: 43.4%
[29]
  residual activity: 92%
[30]
  residual activity: 91.1%
[31]
  residual activity: 91.8%
[32]
  residual activity: 127%
[33]
  residual activity: 49.5%
[34]
  residual activity: 70.4%
[35]
  residual activity: 91.2%
[36]
  residual activity: 89.7%
[37]
  residual activity: 84.6%
[38]
  residual activity: 90.6%
[39]
  residual activity: 101%
[40]
  residual activity: 99.1%
[41]
  residual activity: 86.3%
[42]
  residual activity: 100%
